Data published in US20190116835A1, “Sweetness and Taste Improvement of Steviol Glycoside or Mogroside Sweeteners with Flavonids” (The Coca-Cola Company, priority 2016, published 2019).

Tests used:
[1] = Taste evaluation by trained panelists: sweetness enhancement of Rebaudioside M, compared against sucrose beverages; type: in vivo, human; settings: beverage containing 150 ppm Rebaudioside M in acidic water, no Test Mixture 1
Experimental: The ability of the following compounds to enhance the sweetness of Rebaudioside M was evaluated:
(§1) Sample were prepared with the following ingredients:
(§2) Ingredients were added to water or water with Test Mixture 1 while stirring until solids were visibly dissolved and the sample was poured into a glass bottle and stored at 4° C.
Trained panelists compared the taste and sweetness profiles of (i) the beverage containing 150 ppm Rebaudioside M (Table 3) and (ii) the beverage containing 40 ppm Test Mixture 1 and 150 ppm Rebaudioside M (Table 4) against the 6%, 8%, and 10% sucrose beverages (Table 5).
(§3) Bottles were removed from the refrigerator and about 25 ml of beverage was poured into 4 oz-plastic cups. Panelists were given mineral water to rinse their mouth before and between tastings. Unsalted crackers were also given to panelists to eat followed by rinsing their mouth with mineral water before tasting the next sample. Panelists were instructed to sip, evaluate the sweetness, and then spit the samples in cups provided for that purpose.

[2] = Taste evaluation by trained panelists: sweetness enhancement of Siamenoside I, compared against sucrose beverages; type: in vivo, human; settings: beverage containing 150 ppm Siamenoside I in acidic water, no Test Mixture 1
Experimental: The ability of Text Mixture 1 to enhance the sweetness of Siamenoside I was evaluated.
as §1, §2
The trained panelists then compared the taste and sweetness profiles of (i) the beverage containing 150 ppm Siamenoside I (Table 3) and (ii) the beverage containing 40 ppm Test Mixture 1 and 150 ppm Siamenoside I (Table 4) against the 6%, 8%, and 10% sucrose beverages (Table 5).
as §3

C=C1C[C@@]23CC[C@H]4[C@@](C)(CCC[C@@]4(C)C(=O)O[C@@H]4O[C@H](CO)[C@@H](O)[C@H](O[C@@H]5O[C@H](CO)[C@@H](O)[C@H](O)[C@H]5O)[C@H]4O[C@@H]4O[C@H](CO)[C@@H](O)[C@H](O)[C@H]4O)[C@@H]2CC[C@]1(O[C@@H]1O[C@H](CO)[C@@H](O)[C@H](O[C@@H]2O[C@H](CO)[C@@H](O)[C@H](O)[C@H]2O)[C@H]1O[C@@H]1O[C@H](CO)[C@@H](O)[C@H](O)[C@H]1O)C3 [Rebaudioside M, rebaudioside M]
sweetness, as sweet as sucrose beverage [1]: 5-6 % sucrose

C[C@H](CC[C@@H](O[C@@H]1O[C@H](CO[C@@H]2O[C@H](CO)[C@@H](O)[C@H](O)[C@H]2O)[C@@H](O)[C@H](O)[C@H]1O[C@@H]1O[C@H](CO)[C@@H](O)[C@H](O)[C@H]1O)C(C)(C)O)[C@H]1CC[C@@]2(C)[C@@H]3CC=C4[C@@H](CC[C@H](O[C@@H]5O[C@H](CO)[C@@H](O)[C@H](O)[C@H]5O)C4(C)C)[C@]3(C)[C@H](O)C[C@]12C [Siamenoside I, siamenoside I]
sweetness, equivalent to sucrose beverages [2]: 4%-6%
